Results published in the supplement of paper PMC10307832.

Experiments:
Test in all cases: relative viability (nuclei count vs DMSO), 5 days (fraction); higher = more cells survive
[1] = compound: Nc1nc(Nc2ccc3c(c2)CC[C@@H](N2CCCC2)CC3)nn1-c1cc2c(nn1)-c1ccccc1CCC2 [Bemcentinib] + CC(=O)c1c(C)c2cnc(Nc3ccc(N4CCNCC4)cn3)nc2n(C2CCCC2)c1=O [Palbociclib] (partner 0.5 µM)
Outline: (§1)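 Relative viability was taken as the ratio of nuclei in treated wells to nuclei in vehicle wells. Lung cancer cell lines in 1536-well plates received compounds by pin tool one day after seeding, either one drug alone or a fixed anchor-drug dose plus five library-drug doses (not always all listed) in √10 steps. Nuclei were counted on 4× images after 5 days of treatment, and values are medians of duplicate plates.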

[2] = compound: CNC(=O)c1ccccc1Sc1ccc2c(/C=C/c3ccccn3)n[nH]c2c1 [Axitinib] + C[C@]1(O)C[C@@H](c2nc(-c3ccc4ccc(-c5ccccc5)nc4c3)c3c(N)nccn32)C1 [Linsitinib] (partner 1 µM)
Outline: as §1

[3] = compound: Nc1nc(Nc2ccc3c(c2)CC[C@@H](N2CCCC2)CC3)nn1-c1cc2c(nn1)-c1ccccc1CCC2 [Bemcentinib] + Nc1nc2[nH]cc(CCc3ccc(C(=O)N[C@@H](CCC(=O)O)C(=O)O)cc3)c2c(=O)[nH]1 [Pemetrexed] (partner 0.2 µM)
Outline: as §1

[4] = compound: CNC(=O)c1ccccc1Sc1ccc2c(/C=C/c3ccccn3)n[nH]c2c1 [Axitinib] + CS(=O)(=O)N1CCN(Cc2cc3nc(-c4cccc5[nH]ncc45)nc(N4CCOCC4)c3s2)CC1 [Pictilisib] (partner 1 µM)
Outline: as §1

Cell Line | relative viability ([1]; first compound 0.04 µM) | relative viability ([1]; first compound 0.1265 µM) | relative viability ([1]; first compound 0.4 µM) | relative viability ([1]; first compound 1.265 µM) | relative viability ([1]; first compound 4 µM) | relative viability ([2]; first compound 0.005 µM) | relative viability ([2]; first compound 0.05 µM) | relative viability ([2]; first compound 0.1581 µM) | relative viability ([2]; first compound 0.5 µM) | relative viability ([3]; first compound 0.04 µM) | relative viability ([3]; first compound 0.1265 µM) | relative viability ([3]; first compound 0.4 µM) | relative viability ([3]; first compound 1.265 µM) | relative viability ([3]; first compound 4 µM) | relative viability ([4]; first compound 0.005 µM) | relative viability ([4]; first compound 0.05 µM) | relative viability ([4]; first compound 0.1581 µM) | relative viability ([4]; first compound 0.5 µM) | relative viability ([2]; first compound 0.01581 µM) | relative viability ([4]; first compound 0.01581 µM)
PC-3 [JPC-3] | 0.548 | 0.577 | 0.522 | 0.592 | 0.551 | 0.948 | 0.972 | 0.944 | 0.986 | 1.12 | 1.32 | 1.28 | 1.07 | 1.07 | 0.729 | 0.672 | 0.715 | 0.853 | – | –
HCC-366 | 0.398 | 0.508 | 0.528 | 0.443 | 0.519 | 0.673 | 0.776 | 0.662 | 0.842 | 0.175 | 0.185 | 0.179 | 0.173 | 0.157 | 0.116 | 0.146 | 0.153 | 0.101 | 0.615 | 0.171
NCI-H2405 | 0.555 | 0.549 | 0.528 | 0.59 | 0.583 | 0.945 | 1.07 | 1 | 1.11 | 1.01 | 1.12 | 1.14 | 1.11 | 1.19 | 0.422 | 0.658 | 0.465 | 0.383 | 1 | 0.534
LU99A | 0.367 | 0.37 | 0.422 | 0.401 | 0.413 | 0.611 | 0.5 | 0.483 | 0.553 | 0.139 | 0.321 | 0.241 | 0.154 | 0.16 | 0.355 | 0.336 | 0.363 | 0.306 | 0.561 | 0.349
LCLC-97TM1 | 0.253 | 0.283 | 0.231 | 0.261 | 0.264 | 0.187 | 0.199 | 0.179 | 0.186 | 0.16 | 0.177 | 0.182 | 0.177 | 0.177 | 0.145 | 0.206 | 0.247 | 0.172 | 0.226 | 0.229
A-427 | 0.55 | 0.515 | 0.534 | 0.532 | 0.532 | 1.14 | 1.11 | 1.16 | 1.17 | 0.966 | 1.02 | 1.08 | 0.928 | 0.936 | 0.672 | 0.77 | 0.705 | 0.679 | 1.02 | 0.496
EMC-BAC-2 | 0.519 | 0.556 | 0.507 | 0.513 | 0.519 | 0.874 | 0.813 | 0.782 | 0.837 | 0.442 | 0.475 | 0.48 | 0.416 | 0.419 | 0.569 | 0.534 | 0.555 | 0.529 | 0.781 | 0.533
NCI-H2228 | 0.268 | 0.827 | 0.844 | 0.836 | 0.997 | 0.674 | 0.633 | 0.735 | 0.58 | 0.325 | 0.346 | 0.351 | 0.34 | 0.321 | 0.472 | 0.416 | 0.486 | 0.622 | 0.625 | 0.391
IA-LM | – | – | – | – | – | 0.546 | 0.564 | 0.665 | 0.542 | – | – | – | – | – | 0.442 | 0.331 | 0.396 | 0.4 | 0.437 | 0.307
NCI-H838 | 0.226 | 0.249 | 0.221 | 0.205 | 0.243 | 1.04 | 1.1 | 1 | 1.19 | 0.229 | 0.267 | 0.272 | 0.257 | 0.262 | 0.461 | 0.551 | 0.594 | 0.607 | 1.01 | 0.37
COR-L 105 | 0.385 | 0.381 | 0.412 | 0.377 | 0.396 | 1.04 | 0.97 | 1.21 | 1.13 | 0.989 | 1.12 | 1.18 | 0.93 | 1.03 | 0.42 | 0.379 | 0.382 | 0.385 | 0.792 | 0.411
NCI-H358 | 0.135 | 0.143 | 0.143 | 0.137 | 0.135 | 0.729 | 0.852 | 0.727 | 0.848 | 0.176 | 0.177 | 0.166 | 0.187 | 0.179 | 0.369 | 0.33 | 0.336 | 0.369 | 0.803 | 0.309
SK-MES-1 | 0.314 | 0.33 | 0.325 | 0.316 | 0.317 | 1.12 | 1.08 | 1.14 | 1.22 | 0.958 | 1.1 | 0.987 | 1.03 | 0.967 | 0.303 | 0.337 | 0.409 | 0.481 | 1.07 | 0.391
LCLC-103H | 0.459 | 0.438 | 0.522 | 0.497 | 0.554 | 1.27 | 1.05 | 1.05 | 1.03 | 0.422 | 0.478 | 0.428 | 0.455 | 0.434 | 0.644 | 0.664 | 0.569 | 0.587 | 1.08 | 0.512
HARA | 0.211 | 0.252 | 0.215 | 0.314 | 0.243 | 1.06 | 1.09 | 0.914 | 1.05 | 0.236 | 0.243 | 0.241 | 0.245 | 0.196 | 0.324 | 0.545 | 0.364 | 0.281 | 0.972 | 0.401
ABC-1 | 0.532 | 0.825 | 0.654 | 0.655 | 0.639 | 0.972 | 0.745 | 0.759 | 1.22 | – | – | – | – | – | 0.716 | 0.812 | 0.658 | 0.834 | 0.947 | 0.773
NCI-H727 | 0.625 | 0.663 | 0.637 | 0.696 | 0.667 | 0.415 | 0.311 | 0.246 | 0.432 | – | – | – | – | – | 0.486 | 0.485 | 0.397 | 0.492 | 0.246 | 0.426
